Experimental data from patent US11572590B2, “Methods for evaluating tumor cell spheroids using 3D microfluidic cell culture device” (Dana-Farber Cancer Institute, Inc., priority 2017, dated 2023).
Read-outs that look alike come from different tables or passages of the source.

Experiments:
Experiment in all cases: SelectScreen Kinase Profiling, single point inhibition and IC50 for off-target kinases
Format in all cases: biochemical
off-target kinases [1] = molecular target: off-target kinases (Homo sapiens, UniProt O00311); settings: CDC7/DBF4, LanthaScreen Binding
off-target kinases [2] = molecular target: off-target kinases (Homo sapiens, UniProt P49760); settings: CLK2, ZLYTE, ATP Km app
off-target kinases [3] = molecular target: T1, off-target kinases (Homo sapiens, UniProt Q13237); settings: PRKG2 (PKG2), ZLYTE, ATP Km app
T1 sequence (Q13237 1-762): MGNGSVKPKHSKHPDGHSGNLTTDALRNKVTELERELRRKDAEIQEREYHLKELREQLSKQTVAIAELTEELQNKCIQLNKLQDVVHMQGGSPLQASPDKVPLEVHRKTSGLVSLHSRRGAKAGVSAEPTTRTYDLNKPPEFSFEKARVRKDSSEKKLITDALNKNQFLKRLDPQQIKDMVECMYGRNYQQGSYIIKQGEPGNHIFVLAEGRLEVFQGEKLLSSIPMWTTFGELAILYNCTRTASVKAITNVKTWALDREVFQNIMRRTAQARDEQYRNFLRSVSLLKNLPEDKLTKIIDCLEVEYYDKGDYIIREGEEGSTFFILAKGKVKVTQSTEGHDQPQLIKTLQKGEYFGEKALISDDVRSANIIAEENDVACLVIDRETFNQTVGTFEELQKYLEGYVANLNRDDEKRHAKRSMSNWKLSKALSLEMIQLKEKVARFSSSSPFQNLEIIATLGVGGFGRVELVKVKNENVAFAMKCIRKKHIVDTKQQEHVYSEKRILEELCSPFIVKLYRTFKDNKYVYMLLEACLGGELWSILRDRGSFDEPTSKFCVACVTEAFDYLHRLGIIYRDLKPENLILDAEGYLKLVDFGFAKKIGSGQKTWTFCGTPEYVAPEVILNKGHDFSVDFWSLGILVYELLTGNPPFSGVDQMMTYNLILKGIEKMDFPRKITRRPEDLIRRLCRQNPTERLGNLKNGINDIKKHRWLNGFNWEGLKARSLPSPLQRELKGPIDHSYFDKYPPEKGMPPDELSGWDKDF

off-target kinases [4] = molecular target: off-target kinases (Homo sapiens, UniProt Q92918); settings: MAP4K1 (HPK1), LanthaScreen Binding
off-target kinases [5] = molecular target: off-target kinases (Homo sapiens, UniProt O43293); settings: DAPK3 (ZIPK), ATP Km app, ZLYTE
off-target kinases [6] = molecular target: off-target kinases (Homo sapiens, UniProt Q9P289); settings: MST4, ZLYTE, ATP Km app
off-target kinases [7] = molecular target: off-target kinases (Homo sapiens, UniProt P49336); settings: CDK8/cyclin C, LanthaScreen Binding
off-target kinases [8] = molecular target: off-target kinases (Homo sapiens, UniProt Q16512); settings: PKN1 (PRK1); Cmpd1 1000 μM; ATP Km app; ZLYTE
off-target kinases [9] = molecular target: off-target kinases (Homo sapiens, UniProt Q16620); settings: NTRK2 (TRKB), ZLYTE, ATP Km app
off-target kinases [10] = molecular target: off-target kinases (Homo sapiens, UniProt Q14289); settings: PTK2B (FAK2), ZLYTE, ATP Km app
Sequence of off-target kinases (Homo sapiens, UniProt Q14289) (Q14289 whole entry): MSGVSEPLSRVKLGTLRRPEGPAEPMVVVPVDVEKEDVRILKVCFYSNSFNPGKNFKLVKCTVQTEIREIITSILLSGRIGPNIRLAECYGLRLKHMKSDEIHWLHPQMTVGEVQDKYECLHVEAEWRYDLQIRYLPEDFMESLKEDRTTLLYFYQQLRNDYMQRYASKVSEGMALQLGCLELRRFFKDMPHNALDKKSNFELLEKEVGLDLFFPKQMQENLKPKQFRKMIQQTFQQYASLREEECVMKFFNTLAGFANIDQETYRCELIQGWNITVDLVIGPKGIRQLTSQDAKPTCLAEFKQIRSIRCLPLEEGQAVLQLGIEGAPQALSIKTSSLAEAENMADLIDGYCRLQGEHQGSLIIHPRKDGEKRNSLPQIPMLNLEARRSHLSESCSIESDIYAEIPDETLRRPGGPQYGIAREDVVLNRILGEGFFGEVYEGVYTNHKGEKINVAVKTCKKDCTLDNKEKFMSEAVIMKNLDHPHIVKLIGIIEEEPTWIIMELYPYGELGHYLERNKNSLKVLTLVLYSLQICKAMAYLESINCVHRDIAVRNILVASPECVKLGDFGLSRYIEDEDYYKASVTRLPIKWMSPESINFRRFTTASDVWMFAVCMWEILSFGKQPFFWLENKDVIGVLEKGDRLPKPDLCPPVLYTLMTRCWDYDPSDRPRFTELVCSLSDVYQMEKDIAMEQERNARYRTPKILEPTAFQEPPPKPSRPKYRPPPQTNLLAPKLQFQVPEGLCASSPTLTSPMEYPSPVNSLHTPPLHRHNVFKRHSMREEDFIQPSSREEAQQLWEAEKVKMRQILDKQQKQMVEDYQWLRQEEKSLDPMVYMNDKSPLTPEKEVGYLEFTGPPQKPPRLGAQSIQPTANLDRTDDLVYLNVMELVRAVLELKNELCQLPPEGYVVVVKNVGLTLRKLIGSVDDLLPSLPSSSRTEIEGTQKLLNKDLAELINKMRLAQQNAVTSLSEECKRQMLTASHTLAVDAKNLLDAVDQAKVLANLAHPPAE

Sequence of off-target kinases (Homo sapiens, UniProt Q92918) (Q92918 whole entry): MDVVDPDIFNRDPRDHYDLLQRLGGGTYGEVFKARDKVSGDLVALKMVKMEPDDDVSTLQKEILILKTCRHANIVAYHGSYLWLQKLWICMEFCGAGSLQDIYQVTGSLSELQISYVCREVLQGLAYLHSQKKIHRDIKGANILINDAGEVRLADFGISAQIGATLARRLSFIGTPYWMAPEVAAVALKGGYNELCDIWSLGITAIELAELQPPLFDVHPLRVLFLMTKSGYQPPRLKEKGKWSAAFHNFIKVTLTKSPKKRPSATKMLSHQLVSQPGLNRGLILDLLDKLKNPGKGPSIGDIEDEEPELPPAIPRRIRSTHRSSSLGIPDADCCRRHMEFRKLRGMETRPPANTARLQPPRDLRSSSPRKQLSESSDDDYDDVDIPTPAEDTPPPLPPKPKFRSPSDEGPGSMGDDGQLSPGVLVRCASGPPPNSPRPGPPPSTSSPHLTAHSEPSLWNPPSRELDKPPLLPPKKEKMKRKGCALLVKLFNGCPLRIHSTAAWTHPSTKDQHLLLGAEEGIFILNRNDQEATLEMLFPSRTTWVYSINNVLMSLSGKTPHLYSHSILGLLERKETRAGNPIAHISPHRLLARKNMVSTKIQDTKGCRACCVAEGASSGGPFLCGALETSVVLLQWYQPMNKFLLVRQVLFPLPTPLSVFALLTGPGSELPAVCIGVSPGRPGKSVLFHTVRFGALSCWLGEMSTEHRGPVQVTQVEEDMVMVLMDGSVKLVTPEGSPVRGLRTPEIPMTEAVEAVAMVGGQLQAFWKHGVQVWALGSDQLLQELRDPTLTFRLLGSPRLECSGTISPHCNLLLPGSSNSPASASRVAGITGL
Sequence of off-target kinases (Homo sapiens, UniProt O43293) (O43293 whole entry): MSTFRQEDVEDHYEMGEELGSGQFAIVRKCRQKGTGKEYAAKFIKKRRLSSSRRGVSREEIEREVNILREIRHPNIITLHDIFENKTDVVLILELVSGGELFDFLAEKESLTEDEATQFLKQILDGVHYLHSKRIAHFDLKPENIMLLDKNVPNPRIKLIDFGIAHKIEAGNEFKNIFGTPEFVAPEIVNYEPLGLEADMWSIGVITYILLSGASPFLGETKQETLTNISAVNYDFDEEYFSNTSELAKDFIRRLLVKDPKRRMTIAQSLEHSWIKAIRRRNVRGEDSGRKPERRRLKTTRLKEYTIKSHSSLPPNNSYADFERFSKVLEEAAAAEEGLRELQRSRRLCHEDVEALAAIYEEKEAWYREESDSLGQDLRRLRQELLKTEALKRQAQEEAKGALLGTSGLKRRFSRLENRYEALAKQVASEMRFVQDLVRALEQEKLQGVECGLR
Sequence of off-target kinases (Homo sapiens, UniProt P49760) (P49760 whole entry): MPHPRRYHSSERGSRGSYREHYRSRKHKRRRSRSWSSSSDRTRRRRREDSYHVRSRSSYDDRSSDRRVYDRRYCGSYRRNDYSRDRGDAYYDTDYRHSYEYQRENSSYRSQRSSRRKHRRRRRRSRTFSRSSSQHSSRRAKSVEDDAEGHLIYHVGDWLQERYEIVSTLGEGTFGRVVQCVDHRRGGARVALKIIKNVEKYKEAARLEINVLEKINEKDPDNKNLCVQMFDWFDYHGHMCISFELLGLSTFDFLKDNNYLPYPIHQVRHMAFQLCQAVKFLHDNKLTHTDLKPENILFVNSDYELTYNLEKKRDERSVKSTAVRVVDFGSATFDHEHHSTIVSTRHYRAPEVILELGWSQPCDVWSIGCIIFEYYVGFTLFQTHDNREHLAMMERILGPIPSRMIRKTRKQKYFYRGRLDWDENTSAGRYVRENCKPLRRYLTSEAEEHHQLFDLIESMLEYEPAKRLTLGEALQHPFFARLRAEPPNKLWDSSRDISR
Sequence of off-target kinases (Homo sapiens, UniProt O00311) (O00311 whole entry): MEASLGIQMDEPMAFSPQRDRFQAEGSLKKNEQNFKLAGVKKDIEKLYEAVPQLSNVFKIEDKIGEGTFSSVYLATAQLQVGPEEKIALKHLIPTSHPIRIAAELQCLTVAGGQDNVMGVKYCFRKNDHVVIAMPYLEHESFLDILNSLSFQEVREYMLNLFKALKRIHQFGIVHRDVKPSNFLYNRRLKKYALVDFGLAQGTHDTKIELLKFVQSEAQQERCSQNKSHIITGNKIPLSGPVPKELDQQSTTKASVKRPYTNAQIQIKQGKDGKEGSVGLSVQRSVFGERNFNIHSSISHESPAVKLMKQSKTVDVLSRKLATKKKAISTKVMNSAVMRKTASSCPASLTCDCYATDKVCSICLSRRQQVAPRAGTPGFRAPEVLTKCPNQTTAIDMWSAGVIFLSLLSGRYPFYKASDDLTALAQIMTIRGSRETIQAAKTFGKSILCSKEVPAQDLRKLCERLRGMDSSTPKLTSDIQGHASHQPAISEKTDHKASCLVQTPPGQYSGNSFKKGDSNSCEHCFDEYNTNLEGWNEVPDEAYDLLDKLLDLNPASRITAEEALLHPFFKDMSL
Sequence of off-target kinases (Homo sapiens, UniProt Q16620) (Q16620 32-822): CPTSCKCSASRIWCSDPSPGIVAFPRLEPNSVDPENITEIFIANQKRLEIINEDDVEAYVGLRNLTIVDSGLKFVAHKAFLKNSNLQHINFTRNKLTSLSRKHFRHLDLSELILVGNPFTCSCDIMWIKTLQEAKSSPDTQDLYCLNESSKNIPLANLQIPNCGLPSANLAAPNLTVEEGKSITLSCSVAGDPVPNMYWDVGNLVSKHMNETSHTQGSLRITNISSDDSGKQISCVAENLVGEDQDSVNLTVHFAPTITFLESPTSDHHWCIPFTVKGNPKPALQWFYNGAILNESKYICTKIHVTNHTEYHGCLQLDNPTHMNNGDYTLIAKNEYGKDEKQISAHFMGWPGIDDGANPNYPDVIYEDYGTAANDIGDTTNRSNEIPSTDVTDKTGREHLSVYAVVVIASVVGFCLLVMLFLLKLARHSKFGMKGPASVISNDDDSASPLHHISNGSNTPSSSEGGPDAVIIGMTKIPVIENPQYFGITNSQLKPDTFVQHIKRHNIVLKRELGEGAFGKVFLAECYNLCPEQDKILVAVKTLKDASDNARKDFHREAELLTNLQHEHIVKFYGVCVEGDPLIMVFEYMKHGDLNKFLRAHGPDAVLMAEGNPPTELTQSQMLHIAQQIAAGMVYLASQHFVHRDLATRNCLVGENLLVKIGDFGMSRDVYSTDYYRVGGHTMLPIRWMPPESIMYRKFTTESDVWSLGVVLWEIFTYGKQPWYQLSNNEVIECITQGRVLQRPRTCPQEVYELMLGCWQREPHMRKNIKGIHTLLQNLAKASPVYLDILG
Sequence of off-target kinases (Homo sapiens, UniProt Q9P289) (Q9P289 whole entry): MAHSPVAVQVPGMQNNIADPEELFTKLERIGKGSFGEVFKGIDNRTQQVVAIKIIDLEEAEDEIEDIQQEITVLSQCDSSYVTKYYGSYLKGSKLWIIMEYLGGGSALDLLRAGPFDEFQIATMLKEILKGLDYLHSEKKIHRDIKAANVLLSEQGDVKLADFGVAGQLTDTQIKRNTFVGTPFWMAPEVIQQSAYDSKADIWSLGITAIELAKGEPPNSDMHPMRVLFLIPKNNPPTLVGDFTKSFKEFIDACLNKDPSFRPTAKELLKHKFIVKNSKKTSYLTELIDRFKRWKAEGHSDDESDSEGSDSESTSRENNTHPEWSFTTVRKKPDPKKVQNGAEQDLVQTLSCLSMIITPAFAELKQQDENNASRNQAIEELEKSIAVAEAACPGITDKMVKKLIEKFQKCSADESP
Sequence of off-target kinases (Homo sapiens, UniProt P49336) (P49336 whole entry): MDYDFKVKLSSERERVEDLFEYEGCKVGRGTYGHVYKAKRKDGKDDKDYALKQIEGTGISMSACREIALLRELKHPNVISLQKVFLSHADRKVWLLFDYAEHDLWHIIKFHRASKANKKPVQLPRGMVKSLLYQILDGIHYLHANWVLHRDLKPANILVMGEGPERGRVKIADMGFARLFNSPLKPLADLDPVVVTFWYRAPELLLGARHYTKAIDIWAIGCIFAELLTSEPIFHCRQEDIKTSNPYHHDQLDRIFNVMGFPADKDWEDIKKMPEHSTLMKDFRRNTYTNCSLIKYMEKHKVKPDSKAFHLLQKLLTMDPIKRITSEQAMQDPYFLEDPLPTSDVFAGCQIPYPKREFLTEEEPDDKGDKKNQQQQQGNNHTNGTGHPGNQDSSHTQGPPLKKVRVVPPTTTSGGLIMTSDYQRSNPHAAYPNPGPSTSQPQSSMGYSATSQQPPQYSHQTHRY

N#Cc1cc(-c2ncnc(Nc3ccc(N4CCN(C5COC5)CC4)cc3)n2)ccc1OC1CCOCC1 [Compound 1, 5-(4-((4-(4-(oxetan-3-yl)piperazin-1-yl)phenyl)amino)-1,3,5-triazin-2-yl)-2-((tetrahydro-2H-pyran-4-yl)oxy)benzonitrile]
inhibition (off-target kinases [1]; read-out: % Inhibition 1): 100%
inhibition (off-target kinases [1]; read-out: % Inhibition 2): 97%
inhibition (off-target kinases [1]; read-out: % Inhibition Avg): 98%
inhibition (off-target kinases [2]; read-out: % Inhibition 1): 5%
inhibition (off-target kinases [2]; read-out: % Inhibition 2): 9%
inhibition (off-target kinases [2]; read-out: % Inhibition Avg): 7%
inhibition (off-target kinases [3]; read-out: % Inhibition 1): 16%
inhibition (off-target kinases [3]; read-out: % Inhibition 2): 13%
inhibition (off-target kinases [3]; read-out: % Inhibition Avg): 14%
inhibition (off-target kinases [4]; read-out: % Inhibition 1): 59%
inhibition (off-target kinases [4]; read-out: % Inhibition 2): 55%
inhibition (off-target kinases [4]; read-out: % Inhibition Avg): 57%
inhibition (off-target kinases [5]; read-out: % Inhibition 1): 52%
inhibition (off-target kinases [5]; read-out: % Inhibition 2): 49%
inhibition (off-target kinases [5]; read-out: % Inhibition Avg): 51%
inhibition (off-target kinases [6]; read-out: % Inhibition 1): 2%
inhibition (off-target kinases [6]; read-out: % Inhibition 2): 3%
inhibition (off-target kinases [6]; read-out: % Inhibition Avg): 2%
inhibition (off-target kinases [7]; read-out: % Inhibition 1): 0%
inhibition (off-target kinases [7]; read-out: % Inhibition 2): 3%
inhibition (off-target kinases [7]; read-out: % Inhibition Avg): 1%
% Inhibition 1 (off-target kinases [8]): −6%
% Inhibition 2 (off-target kinases [8]): −4%
% Inhibition Avg (off-target kinases [8]): −5%
inhibition (off-target kinases [9]; read-out: % Inhibition 1): 5%
inhibition (off-target kinases [9]; read-out: % Inhibition 2): 7%
inhibition (off-target kinases [9]; read-out: % Inhibition Avg): 6%
inhibition (off-target kinases [10]; read-out: % Inhibition 1): 8%
inhibition (off-target kinases [10]; read-out: % Inhibition 2): 4%
inhibition (off-target kinases [10]; read-out: % Inhibition Avg): 6%
